Experimental data reported in patent US20240173317A1, “METHODS FOR TREATING PROGRESSIVE FAMILIAL INTRAHEPATIC CHOLESTASIS” (MIRUM PHARMACEUTICALS, INC., priority 2022, published 2024).

Tests used:
subjects with PFIC [1] = assay: Clinician Scratch Scale (CSS) score, MARCH-PFIC Phase 3 study; format: in vivo, human
Text: Clinician Scratch Scale (CSS). The CSS provides an assessment of itch severity. The clinician's assessment of the subject's pruritus focused on scratching and visible damage to the skin as a result of scratching as observed by the physician. The CSS uses a 5-point scale, in which 0 designates no evidence of scratching and 4 designates cutaneous mutilation with bleeding, hemorrhage and scarring. A clinician's assessment of pruritus made by the principal investigator or sub-investigator using the CSS was recorded at screening, baseline, and at additional study visits as outline in Table 2.
For the PFIC Cohort, PFIC Type is included in the model as an additional covariate.
Clinician Scratch Scale (CSS) was scored on a 0-4 scale, where 0=none and 4=cutaneous mutilations, haemorrage, and scarring (worst scratching).

[2] = Height and weight Z-score, MARCH-PFIC Phase 3 study; format: in vivo, human; settings: BSEP deficiency group and PFIC group vs placebo
subjects with PFIC [3] = assay: Clinical laboratory evaluations (ALT/transaminases, INR, vitamins A, D, E), MARCH-PFIC Phase 3 study; format: in vivo, human
Text: Clinical Laboratory Evaluations.
For subjects with a confirmed increase in ALT or TSB level, meeting the close monitoring criteria, the following investigations were considered, as clinically indicated: 1) Close and frequent monitoring of liver enzyme and serum bilirubin tests as clinically indicated; 2) Symptoms as well as prior, current, and intercurrent diseases/illnesses; 3) Use of or recent change in use of concomitant treatment (including non-prescription medications, herbal and dietary supplement preparations), alcohol use, recreational drug use, and special diets; 4) History for exposure to environmental chemical agents and travel; 5) Serology for viral hepatitis (HAV IgM, HBsAg, HCV antibody, HCVRNA, CMV IgM, and EBV antibody panel); 6) Serology for autoimmune hepatitis (e.g., antinuclear antibody [ANA]); 7) AST, creatine phosphokinase (CPK), and lactate dehydrogenase (LDH); 8) CBC with differential blood count (eosinophils); 9) Reticulocyte count, PT/INR.

subjects with PFIC [4] = assay: Treatment-emergent adverse events (TEAEs), MARCH-PFIC Phase 3 study; format: in vivo
Text: A TEAE can therefore be any unfavorable and unintended sign (including an abnormal laboratory finding), symptom, or disease temporally associated with the use of a medicinal (investigational) product, whether or not related to the medicinal (investigational) product (ICH Guidance E2A 1995). All TEAEs are collected from the time the informed consent is signed until the defined follow-up period. This includes events occurring during the screening phase of the study, regardless of whether or not study medication is administered.
A serious adverse event (SAE) is any untoward medical occurrence (whether considered to be related to study medication or not) that at any dose: 1) Results in death; 2) Is life-threatening; 3) Requires inpatient hospitalization or prolongation of existing hospitalization; 4) Results in persistent or significant disability/incapacity; or 5) Is an important medical event.
All SAEs (regardless of relationship to study) are collected from the time the subject signs the informed consent until the defined follow-up period and must be reported within 24 hours of the first awareness of the event.

participants with ALGS [5] = assay: ItchRO(Obs) pruritus in participants with ALGS aged 16 years and older; format: in vivo, human
Description: All patients received the daily dose appropriate for their weight, with an adult maximum dose of 28.5 mg/d. ^bBefore age 16 years is defined as the last data point prior to turning 16 years of age. After age 16 years is defined as the first data point after turning 16 years of age.
FIGS. 31A and 31B show a change in ltchRO(Obs) (FIG. 31A) and sBA (FIG. 31B) for participants who initiated MRX treatment at <16 years of age (n=11). Of 11 participants, 9 had ItchRO(Obs) scores available for all time points and were included in the analysis. ^bItchRO(Obs) is a 0-4 scale with >1-point reduction considered clinically meaningful. Mean ItchRO(Obs) was rounded to 1 decimal place. Error bars represent SE. Significance was determined using student t test. ^cMean sBA was rounded to the nearest whole number. Error bars represent SE. ^dAverage of last 2 records prior to age 16 years. ^eAverage of first 2 records after age 16 years. ^fAverage of final 2 records.
FIGS. 32A and 32B show a change in ltchRO(Obs) (FIG. 32A) and sBA (FIG. 32B) for participants who Initiated MRX treatment at ≥16 years of age (n=3). ^aItchRO(Obs) is 0-4 scale with ≥1-point reduction considered clinically meaningful. ^bAverage of final two records.
The efficacy and safety of MRX in participants with ALGS aged ≥16 years transitioning to adult care and participant aged ≥16 years who initiate MRX treatment were studied (FIG. 30). […]

participants with ALGS [6] = assay: TEAEs in participants with ALGS aged 16 years and older; format: in vivo, human
Text: The efficacy and safety of MRX in participants with ALGS aged ≥16 years transitioning to adult care and participant aged ≥16 years who initiate MRX treatment were studied (FIG. 30). The median (min, max) duration of therapy for participants who initiated MRX at <16 years of age was 4.1 years (1.5, 5.9), with the oldest patient taking MRX (Table 13). Three participants began MRX at ≥16 years of age and were followed for a median of 3.8 years.

[7] = BSEP deficiency cohort, FIG. 19A
[8] = MARCH, all PFIC cohorts, Maralixibat (n = 47)
[9] = MARCH, all PFIC cohorts, Maralixibat (n = 47), listed as Maralixibat
[10] = among the 8 participants receiving MRX who had transaminase elevations
[11] = ALGS, aged <16 y at MRX initiation (n = 11), After 16 y
[12] = ALGS, aged <16 y at MRX initiation (n = 11), Before 16 y
[13] = ALGS, aged >16 y at MRX initiation (n = 3)

CCCCC1(CCCC)CS(=O)(=O)c2ccc(N(C)C)cc2[C@@H](c2ccc(OCc3ccc(C[N+]45CCN(CC4)CC5)cc3)cc2)[C@H]1O [maralixibat, 1-(4-((4-((4R,5R)-3,3-dibutyl-7-(dimethylamino)-4-hydroxy-1,1-dioxido-2,3,4,5-tetrahydrobenzo[b]thiepin-5-yl)phenoxy)methyl)benzyl)-1,4-diazabicyclo[2.2.2]octan-1-ium]
difference in CSS improvement vs placebo group (subjects with PFIC [1]; [7]): 1.328 point | improvement in CSS score relative to baseline (subjects with PFIC [1]; [7]): about 1.7 points | difference in CSS improvement vs placebo group (subjects with PFIC [1]; PFIC cohort, FIG. 19B): 1.247 point | improvement in CSS score relative to baseline (subjects with PFIC [1]; PFIC cohort, FIG. 19B): about 1.8 points | change of participant height Z-score over time ([2]; FIG. 24A-C): overall positive trend for increase | change of participant weight Z-score over time ([2]; FIG. 25A-C): gained significantly more weight over time than placebo participants | changes in serum ALT (subjects with PFIC [3]; All-PFIC Cohort, FIG. 26A-B): No significant changes | changes from baseline in transaminase levels (subjects with PFIC [3]; MARCH, either group): no clinically meaningful changes | changes from baseline in serum levels of vitamins A, D, and E (subjects with PFIC [3]; MARCH, under regular FSV supplementation): No clinically meaningful changes | International normalized ratio (INR), mean change from Baseline (subjects with PFIC [3]; MARCH, week 26): −0.3 | median duration of diarrhea (subjects with PFIC [4]; MARCH): 5.5 days | patients who discontinued MRX due to transaminase elevation (subjects with PFIC [4]; MARCH): No patients | tolerability (subjects with PFIC [4]; MARCH): well-tolerated | Any TEAE, % (subjects with PFIC [4]; [8]): (100%) | Diarrhoea related to study drug, % (subjects with PFIC [4]; [8]): (27.7%) | GI disorders (most common TEAEs), % (subjects with PFIC [4]; [8]): 74.5% | GI events potentially related to study drug, % (subjects with PFIC [4]; [8]): (29.8%) | Grade 3/4 TEAE, % (subjects with PFIC [4]; [8]): (6.4%) | Serious TEAE (SAE), % (subjects with PFIC [4]; [8]): 10.6% | TEAE leading to discontinuation, % (subjects with PFIC [4]; [8]): (2.1%) | TEAE potentially related to study drug, % (subjects with PFIC [4]; [8]): (38.3%) | Serious TEAE (SAE), % (subjects with PFIC [4]; MARCH, all PFIC cohorts, Maralixibat (n = 47), listed as MRX): 10.6% | Diarrhoea, % (subjects with PFIC [4]; [9]): (57.4%) | Serious TEAE (SAE), % (subjects with PFIC [4]; [9]): (10.6%) | Constipation, % (subjects with PFIC [4]; MARCH, MRX (n = 47)): (8.5) % | Gastroenteritis, % (subjects with PFIC [4]; MARCH, MRX (n = 47)): (6.4) % | Haematochezia, % (subjects with PFIC [4]; MARCH, MRX (n = 47)): (6.4) % | Increased ALT, % (subjects with PFIC [4]; MARCH, MRX (n = 47)): (12.8) % | Vomiting, % (subjects with PFIC [4]; MARCH, MRX (n = 47)): (6.4) % | participants with resolution of the transaminase elevation without drug interruption (subjects with PFIC [4]; [10]): 6 | patients with ongoing stable transaminase elevation even after drug interruption or dose reduction (subjects with PFIC [4]; [10]): 2 | improvements in pruritus (ItchRO(Obs)) (participants with ALGS [5]; MRX during childhood, maintained into early adulthood, FIG. 31A): significant improvements | improvements in pruritus (ItchRO(Obs)) (participants with ALGS [5]; participants receiving MRX in early adulthood, FIG. 32A): significant improvements | tolerability (participants with ALGS [6]; ALGS participants aged 16 years and older): generally well tolerated | Any TEAEs, % (participants with ALGS [6]; [11]): (63.6) % | Gastrointestinal TEAEs: Abdominal pain, % (participants with ALGS [6]; [11]): (18.2) % | Gastrointestinal TEAEs: Diarrhoea, % (participants with ALGS [6]; [11]): (9.1) % | SAEs, % (participants with ALGS [6]; [11]): (9.1) % | TEAEs > grade 3, % (participants with ALGS [6]; [11]): (9.1) % | Treatment-related AEs, % (participants with ALGS [6]; [11]): (18.2) % | Any TEAEs, % (participants with ALGS [6]; [12]): (100) % | Gastrointestinal TEAEs: Abdominal pain, % (participants with ALGS [6]; [12]): (45.5) % | Gastrointestinal TEAEs: Diarrhoea, % (participants with ALGS [6]; [12]): (54.5) % | SAEs, % (participants with ALGS [6]; [12]): (18.2) % | TEAEs > grade 3, % (participants with ALGS [6]; [12]): (9.1) % | Treatment-related AEs, % (participants with ALGS [6]; [12]): (81.8) % | Any TEAEs, % (participants with ALGS [6]; [13]): (100) % | Gastrointestinal TEAEs: Diarrhoea, % (participants with ALGS [6]; [13]): (33.3) % | TEAEs > grade 3, % (participants with ALGS [6]; [13]): (33.3) % | Treatment-related AEs ≥ grade 3, % (participants with ALGS [6]; [13]): (33.3) % | Treatment-related AEs, % (participants with ALGS [6]; [13]): (66.7) %
